According to US10357464B2, “Methods for delivering volatile anesthetics for regional anesthesia and/or pain relief” (The Board of Regents of the University of Texas System, priority 2006, dated 2019):
Several values for one entry are separate records, joined by “and”; a condition that tells them apart may be missing. Equal values may be shown once.

Tests used:
[1] = tested on: thermal C-fiber pain pathway; test: Hotplate test (thermal withdrawal latency) after direct intrathecal injection of volatile anesthetic; conditions: smallest intrathecally delivered dose of 2 microliters
[2] = Observation of adverse effects and recovery after intrathecal injection; assay type: in vivo, rat; conditions: intrathecal injection of 2 microliters, rats
Experimental: These rats were then allowed time to recover from their intrathecal injection. There were no apparent adverse effects such as respiratory depression, cardiac, or neurological compromise. At 30 minutes after the injection, the rats were tested again, according to grouping:
This study also shed some light into the safety of intrathecally delivering active agent gases.

[3] = tested on: thermal C-fiber pain pathway; test: Hotplate test after intrathecal injection of isoflurane dissolved in saline (Study C); assay type: in vivo, rat; conditions: 5 microliter isoflurane dissolved in saline
Experimental: Isoflurane was dissolved into saline using the following method (also referred to as the “bubbling” method). Study C: A mock vaporizing device was created using a 500 ml modified Erlenmeyer flask (2 inlets and 1 catheter into the liquid phase). The flask was partially filled with 0.9% normal saline and a stoppered glass pipette was inserted into the bottom of the liquid phase for injection of isoflurane. A second egress pipette allowed egress of gas from the closed container. 2% isoflurane solution in oxygen at 2 L/min was injected through the pipette, saturating the 0.9% saline solution after approximately 10 minutes of injection. 5 mL was drawn from the saturated saline solution and administered to […] using the procedures outlined in Example I above. For study C, all animals were prepared as for experiments A and B. The inventors injected 4 animals with 5 microliter of dissolved isoflurane solution (as prepared in 0030) via intrathecal catheter. Note, control (baseline) latency to paw withdrawal is different in Study C due to a different intensity of heat lamp used. Each animal serves as its own control in study C. Study C Data is presented here: in seconds to paw withdrawal to heat source. Table and graphic format.

[4] = tested on: thermal C-fiber pain pathway; test: Hotplate test after intrathecal isoflurane dissolved in artificial cerebrospinal fluid (ACSF); assay type: in vivo, rat
Experimental: Pain sensitivity was measured after intrathecal administration of isoflurane in artificial cerebrospinal fluid (ACSF). Further, as detailed below, the isoflurane was first dissolved in ACSF and then sonicated before administration. The dose response relationship was then evaluated by generating a stimulus-response (SR) graph in order to determine relevant concentrations of isoflurane that may be administered intrathecally to achieve analgesia or anesthesia. The characterization of the pharmacological profile of intrathecal administration of isoflurane in ACSF was performed in this example using rats; further, as would be appreciated by one of skill in the art, analogous approaches may be used to determine the precise pharmacological profile in humans. Isoflurane dissolved in ACSF was prepared by the following method. […] The dose response relationship was then evaluated by generating a stimulus-response (SR) graph in order to standardize responses across animals and determine relevant concentrations of isoflurane that may be administered intrathecally to achieve analgesia or anesthesia. […] MPE is calculated as ((drug response time—baseline response time)/(cutoff time−baseline response time))*100. […]

Compound: FCOC(C(F)(F)F)C(F)(F)F [sevoflurane]
- analgesic effect (thermal latency time) [1]: analgesic effect
- adverse effects [2]: None of the rats in the study experienced adverse effects

Compound: FC(F)OC(Cl)C(F)(F)F (stereo not shown) [isoflurane, 1-chloro-2,2,2-trifluoroethyl difluoromethyl ether]
- seconds to paw withdrawal to heat source, 5 MIN, mean ([3]; 5 min, mean of all readings (control mean 3.875)): 14.82 s
- seconds to paw withdrawal to heat source, 5 MIN ([3]; 5 min, single readings per rat): 14.2 seconds and 20 seconds (3×) and 16 seconds and 9.8 seconds and 11.8 seconds (2×) and 9.1 seconds and 11 seconds and 15 seconds and 19.5 seconds and 10.9 seconds and 12.6 seconds and 18.1 seconds and 17.3 seconds
- seconds to paw withdrawal to heat source, 10 MIN, mean ([3]; 10 min, mean of all readings): 9.181 s
- seconds to paw withdrawal to heat source, 10 MIN ([3]; 10 min, single readings per rat): 12.2 seconds and 12 seconds (2×) and 9.1 seconds and 8.9 seconds and 8.8 seconds and 7.8 seconds and 10.2 seconds and 8.1 seconds and 5.4 seconds and 9 seconds (3×) and 6.8 seconds and 9.9 seconds and 8.7 seconds
- seconds to paw withdrawal to heat source, 15 MIN, mean ([3]; 15 min, mean of all readings): 7.375 s
- seconds to paw withdrawal to heat source, 15 MIN ([3]; 15 min, single readings per rat): 6.1 s and 7.1 s and 4.8 s and 5.2 s and 7.9 s and 6.4 s and 6.9 s and 4.3 s and 7.6 s and 7.3 s and 8.8 s and 7 s and 10.4 s and 9.4 s and 5.4 s and 13.4 s
- seconds to paw withdrawal to heat source, 30 MIN, mean ([3]; 30 min, mean of all readings): 5.9375 s
- seconds to paw withdrawal to heat source, 30 MIN ([3]; 30 min, single readings per rat): 5.2 seconds (2×) and 6.1 seconds and 5.8 seconds and 6.5 seconds and 4.9 seconds (2×) and 4.3 seconds and 4.7 seconds and 3.8 seconds and 6.8 seconds and 7.2 seconds and 8.2 seconds and 6.9 seconds and 8.1 seconds and 6.4 seconds
- seconds to paw withdrawal to heat source, 60 MIN, mean ([3]; 60 min, mean of all readings): 4.456 s
- seconds to paw withdrawal to heat source, 60 MIN ([3]; 60 min, single readings per rat): 4.2 seconds (2×) and 3.5 seconds (3×) and 3.3 seconds and 3.8 seconds (3×) and 6.1 seconds and 5.8 seconds and 5.1 seconds and 4.9 seconds and 4.7 seconds and 7 seconds and 4.1 seconds
- analgesic effect (thermal latency time) [1]: analgesic effect
- maximal possible effect (MPE) ([4]; 10% v/v isoflurane in ACSF, 10 μl intrathecal (1.46 mg), 10 minutes after injection, cutoff 20 seconds): ~34%
- analgesia (hind paw withdrawal threshold to radiant heat) ([4]; isoflurane in ACSF 10% v/v, 10 μL intrathecal, 1.46 mg dose): resulted in analgesia
- adverse effects [2]: None of the rats in the study experienced adverse effects
